Assay results: ChEMBL document CHEMBL6114953, “De novo discovery of cyclic peptide inhibitors of IL-11 signaling” (Bioorg Med Chem, 2025)
Activity calls are given as the source filed them. The calls are words filed in the database; no cut-off is given here. Where a SMILES comes first, the peptide text is derived from it. Bridges are numbered along the chain shown (N, C = ends).

Key:
[1] = Binding affinity to CAP chip-immobilized IL-6 (unknown origin) by SPR analysis; settings: Homo sapiens
[2] = Inhibition of his-tagged recombinant human IL-11 (22 to 199 residues) expressed in HEK293 cells/biotinylated recombinant human IL-11Ralpha (24 to 370 residues) expressed in HEK293 cells incubated for 1 hr by AlphaLISA assay; format: cell-based
[3] = target: T1, Interleukin-11 (Homo sapiens, UniProt P20809); test: Binding affinity to CAP chip-immobilized IL-11 (unknown origin) assessed as dissociation constant by SPR analysis
T1 sequence (P20809 whole entry): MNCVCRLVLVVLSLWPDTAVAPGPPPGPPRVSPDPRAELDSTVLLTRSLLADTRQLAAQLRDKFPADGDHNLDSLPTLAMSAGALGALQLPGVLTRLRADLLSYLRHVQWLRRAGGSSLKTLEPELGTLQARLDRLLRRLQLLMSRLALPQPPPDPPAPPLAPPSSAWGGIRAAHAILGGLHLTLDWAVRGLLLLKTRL

[4] = target: T2, Interleukin-11 receptor subunit alpha (Homo sapiens) (UniProt Q14626); test: Binding affinity to CAP chip-immobilized biotinylated recombinant human IL-11Ralpha by SPR analysis
T2 sequence (whole entry): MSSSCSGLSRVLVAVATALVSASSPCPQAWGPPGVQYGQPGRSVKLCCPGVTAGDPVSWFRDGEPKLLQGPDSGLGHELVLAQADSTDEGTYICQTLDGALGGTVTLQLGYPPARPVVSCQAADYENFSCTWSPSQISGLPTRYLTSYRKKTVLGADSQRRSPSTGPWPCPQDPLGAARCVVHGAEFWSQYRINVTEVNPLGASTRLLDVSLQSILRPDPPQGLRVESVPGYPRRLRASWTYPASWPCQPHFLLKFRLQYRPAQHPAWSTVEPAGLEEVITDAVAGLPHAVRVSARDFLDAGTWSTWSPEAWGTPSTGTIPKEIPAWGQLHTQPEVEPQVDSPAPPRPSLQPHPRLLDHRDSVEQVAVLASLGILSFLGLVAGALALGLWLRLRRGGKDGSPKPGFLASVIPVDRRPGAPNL

[5] = species: Homo sapiens; test: Binding affinity to CAP chip-immobilized IL-6R (unknown origin) by SPR analysis
[6] = target: T3, Interleukin-11 (Homo sapiens) (UniProt P20809); test: Binding affinity to CAP chip-immobilized IL-11 (unknown origin) by SPR analysis
T3 sequence (whole entry): T1 sequence (P20809 whole entry)

| SMILES | Activity [1] | Ki [2] | Kd [3] | Activity [4] | Activity [5] | Activity [6] |
| --- | --- | --- | --- | --- | --- | --- |
| CC(C)[C@@H]1NC(=O)[C@H](CCCNC(=N)N)NC(=O)[C@@H]2CCCN2C(=O)[C@H](CC(=O)O)NC(=O)[C@H](Cc2ccc(O)cc2)NC(=O)[C@H](Cc2c[nH]c3ccccc23)NC(=O)CNC(=O)[C@@H](NC(=O)[C@H](Cc2ccc(O)cc2)NC(=O)[C@H](Cc2c[nH]c3ccccc23)NC(=O)[C@H](Cc2ccccc2)NC(=O)[C@H](CCC(=O)O)NC(=O)[C@@H](NC(=O)[C@@H](NC(=O)[C@H](CCC(=O)O)NC(=O)[C@H](C)N)[C@@H](C)O)C(C)C)CSSC[C@@H](C(=O)N[C@@H](CO)C(=O)N[C@@H](Cc2ccc(O)cc2)C(N)=O)NC(=O)CNC1=O (H-AETVEFWYCGWYDPRVGCSY-NH2; disulfide 9-18) | inactive | 500 nM | 2600 nM | inactive | inactive | – |
| CC(C)C[C@@H]1NC(=O)[C@@H]2CCCN2C(=O)[C@H](CC(C)C)NC(=O)[C@H](Cc2c[nH]c3ccccc23)NC(=O)[C@@H](NC(=O)[C@H](Cc2ccccc2)NC(=O)[C@H](CCC(=O)O)NC(=O)[C@@H](NC(=O)[C@@H](NC(=O)[C@H](CCC(=O)O)NC(=O)[C@H](C)N)[C@@H](C)O)C(C)C)CSSC[C@@H](C(N)=O)NC(=O)[C@H](Cc2ccccc2)NC(=O)[C@H](Cc2ccc(O)cc2)NC(=O)[C@H](Cc2c[nH]c3ccccc23)NC(=O)[C@H](Cc2c[nH]cn2)NC(=O)[C@H](CO)NC1=O (H-AETVEFCWLPLSHWYFC-NH2; disulfide 7-17) | inactive | 1360 nM | – | inactive | inactive | inactive |
| C[C@@H]1NC(=O)[C@H](CCCNC(=N)N)NC(=O)[C@H](CCCNC(=N)N)NC(=O)CNC(=O)[C@@H](N)CSSC[C@@H](C(N)=O)NC(=O)[C@H](CO)NC(=O)CNC(=O)CNC1=O (H-CGRRAGGSC-NH2; disulfide 1-9) | inactive | > 28000 nM | – | inactive | inactive | inactive |
| Cc1c(-c2ccc(O)cc2)n(Cc2ccc(OCCN3CCCCCC3)cc2)c2ccc(O)cc12 [BAZEDOXIFENE] | inactive | 11800 nM | – | inactive | inactive | – |
| CSCC[C@@H]1NC(=O)[C@H](Cc2c[nH]cn2)NC(=O)[C@H](CO)NC(=O)[C@@H](NC(=O)[C@H](Cc2c[nH]c3ccccc23)NC(=O)[C@H](Cc2ccc(O)cc2)NC(C)=O)CSSC[C@@H](C(=O)N[C@@H](Cc2c[nH]c3ccccc23)C(=O)N[C@@H](CCCNC(=N)N)C(N)=O)NC(=O)[C@H](C(C)C)NC(=O)[C@H]([C@@H](C)O)NC(=O)[C@H]([C@@H](C)O)NC(=O)[C@H](Cc2ccc(O)cc2)NC(=O)[C@H](Cc2ccc(O)cc2)NC1=O (Ac-YWCSHMYYTTVCWR-NH2; disulfide 3-12) | inactive | 300 nM | 140 nM | inactive | inactive | – |
| CC(C)C[C@@H]1NC(=O)[C@@H]2CCCN2C(=O)[C@H](C(C)C)NC(=O)[C@H](Cc2c[nH]c3ccccc23)NC(=O)[C@@H](NC(=O)[C@H](Cc2ccccc2)NC(=O)[C@H](CCC(=O)O)NC(=O)[C@@H](NC(=O)[C@@H](NC(=O)[C@H](CCC(=O)O)NC(=O)[C@H](C)N)[C@@H](C)O)C(C)C)CSSC[C@@H](C(N)=O)NC(=O)[C@H](C(C)C)NC(=O)[C@H](CCC(N)=O)NC(=O)[C@H](Cc2ccccc2)NC(=O)[C@H](Cc2ccc(O)cc2)NC(=O)[C@H](CO)NC1=O (H-AETVEFCWVPLSYFQVC-NH2; disulfide 7-17) | inactive | 1500 nM | – | inactive | inactive | inactive |
| CC(=O)N[C@H]1CSSC[C@@H](C(N)=O)NC(=O)[C@H](C(C)C)NC(=O)[C@H](Cc2ccc(O)cc2)NC(=O)[C@H](Cc2c[nH]c3ccccc23)NC(=O)[C@H](Cc2c[nH]c3ccccc23)NC(=O)[C@H](Cc2c[nH]cn2)NC(=O)[C@H](Cc2ccc(O)cc2)NC(=O)[C@@H]2CCCN2C(=O)[C@H](CCCCN)NC(=O)[C@H](Cc2c[nH]c3ccccc23)NC1=O (Ac-CWKPYHWWYVC-NH2; disulfide 1-11) | – | 2500 nM | – | – | – | – |
| CSCC[C@@H]1NC(=O)[C@H](Cc2c[nH]cn2)NC(=O)[C@H](CO)NC(=O)[C@@H](NC(=O)[C@H](Cc2c[nH]c3ccccc23)NC(=O)[C@H](Cc2ccc(O)cc2)NC(=O)[C@H](Cc2ccccc2)NC(=O)[C@H](CCC(N)=O)NC(=O)[C@@H](NC(C)=O)C(C)C)CSSC[C@@H](C(=O)N[C@@H](Cc2c[nH]c3ccccc23)C(=O)N[C@@H](CCCNC(=N)N)C(N)=O)NC(=O)[C@H](C(C)C)NC(=O)[C@H]([C@@H](C)O)NC(=O)[C@H]([C@@H](C)O)NC(=O)[C@H](Cc2ccc(O)cc2)NC(=O)[C@H](Cc2ccc(O)cc2)NC1=O (Ac-VQFYWCSHMYYTTVCWR-NH2; disulfide 6-15) | – | 700 nM | – | – | – | – |
| CSCC[C@@H]1NC(=O)[C@H](Cc2c[nH]cn2)NC(=O)[C@H](CO)NC(=O)[C@@H](NC(=O)[C@H](Cc2c[nH]c3ccccc23)NC(=O)[C@H](Cc2ccc(O)cc2)NC(=O)[C@H](Cc2ccccc2)NC(=O)[C@H](CCC(N)=O)NC(=O)[C@@H](NC(=O)[C@@H](NC(=O)[C@H](CCC(N)=O)NC(=O)[C@H](C)N)[C@@H](C)O)C(C)C)CSSC[C@@H](C(=O)N[C@@H](Cc2c[nH]c3ccccc23)C(=O)N[C@@H](CCCNC(=N)N)C(N)=O)NC(=O)[C@H](C(C)C)NC(=O)[C@H]([C@@H](C)O)NC(=O)[C@H]([C@@H](C)O)NC(=O)[C@H](Cc2ccc(O)cc2)NC(=O)[C@H](Cc2ccc(O)cc2)NC1=O (H-AQTVQFYWCSHMYYTTVCWR-NH2; disulfide 9-18) | – | 180 nM | – | – | – | – |
| CC(C)C[C@@H]1NC(=O)[C@H](CCC(=O)O)NC(=O)[C@H](Cc2ccccc2)NC(=O)[C@H](CCC(N)=O)NC(=O)[C@@H]2CCCN2C(=O)[C@H](Cc2c[nH]c3ccccc23)NC(=O)[C@H](C(C)C)NC(=O)[C@H](Cc2ccc(O)cc2)NC(=O)[C@@H](NC(=O)[C@H](Cc2ccccc2)NC(=O)[C@H](CCC(=O)O)NC(=O)[C@@H](NC(=O)[C@@H](NC(=O)[C@H](CCC(=O)O)NC(=O)[C@H](C)N)[C@@H](C)O)C(C)C)CSSC[C@@H](C(N)=O)NC(=O)[C@H](C(C)C)NC1=O (H-AETVEFCYVWPQFELVC-NH2; disulfide 7-17) | – | 310 nM | – | – | – | – |
| CC[C@H](C)[C@@H]1NC(=O)[C@H](Cc2c[nH]cn2)NC(=O)[C@H](Cc2c[nH]cn2)NC(=O)[C@H](C)NC(=O)[C@@H](NC(=O)[C@H](Cc2ccccc2)NC(=O)[C@H](CCC(=O)O)NC(=O)[C@@H](NC(=O)[C@@H](NC(=O)[C@H](CCC(=O)O)NC(=O)[C@H](C)N)[C@@H](C)O)C(C)C)CSSC[C@@H](C(N)=O)NC(=O)[C@H](Cc2c[nH]c3ccccc23)NC(=O)[C@H](Cc2c[nH]c3ccccc23)NC(=O)[C@H](Cc2c[nH]c3ccccc23)NC(=O)[C@H](C)NC(=O)[C@H](Cc2ccc(O)cc2)NC1=O (H-AETVEFCAHHIYAWWWC-NH2; disulfide 7-17) | – | 2400 nM | – | – | – | – |
| CSCC[C@@H]1NC(=O)[C@H](Cc2c[nH]cn2)NC(=O)[C@H](CO)NC(=O)[C@@H](NC(=O)[C@H](Cc2c[nH]c3ccccc23)NC(=O)[C@H](Cc2ccc(O)cc2)NC(=O)[C@H](Cc2ccccc2)NC(=O)[C@H](CCC(=O)O)NC(=O)[C@@H](NC(=O)[C@@H](NC(=O)[C@H](CCC(=O)O)NC(=O)[C@H](C)N)[C@@H](C)O)C(C)C)CSSC[C@@H](C(=O)N[C@@H](Cc2c[nH]c3ccccc23)C(=O)N[C@@H](CCCNC(=N)N)C(N)=O)NC(=O)[C@H](C(C)C)NC(=O)[C@H]([C@@H](C)O)NC(=O)[C@H]([C@@H](C)O)NC(=O)[C@H](Cc2ccc(O)cc2)NC(=O)[C@H](Cc2ccc(O)cc2)NC1=O (H-AETVEFYWCSHMYYTTVCWR-NH2; disulfide 9-18) | – | 3900 nM | – | – | – | – |
| CSCC[C@@H]1NC(=O)[C@H](Cc2c[nH]cn2)NC(=O)[C@H](CO)NC(=O)[C@@H](NC(C)=O)CSSC[C@@H](C(=O)N[C@@H](Cc2c[nH]c3ccccc23)C(=O)N[C@@H](CCCNC(=N)N)C(N)=O)NC(=O)[C@H](C(C)C)NC(=O)[C@H]([C@@H](C)O)NC(=O)[C@H]([C@@H](C)O)NC(=O)[C@H](Cc2ccc(O)cc2)NC(=O)[C@H](Cc2ccc(O)cc2)NC1=O (Ac-CSHMYYTTVCWR-NH2; disulfide 1-10) | – | > 28000 nM | – | – | – | – |
| C=C(CCCCC)[C@@H](O)[C@H](C)C(=O)N1C(=O)OC[C@@H]1C(C)C | inactive | > 28000 nM | – | inactive | inactive | inactive |
